Experiments:
Assay type in all cases: in vivo
Veronica persica (VERPE) [1] = assay: B. Herbicidal post-emergence efficacy, VERPE
How it was run: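 Post-emergence greenhouse test: one-leaf-stage plants, compound (WP/EC, +0.5% additive, 600 L/ha water, ≤1280 g/ha) applied to green parts; % efficacy scored visually vs untreated after ~3 wk; 100% = plants died.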

Stellaria media (STEME) = assay: A. Herbicidal pre-emergence efficacy, STEME
How it was run: (§1)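 Pre-emergence soil-surface spray in sandy loam pots, WP/EC in water plus 0.5% additive, 600 L/ha. Visual % damage rating after about 3 weeks in greenhouse vs. untreated; 0% = control-like, 100% = dead plants. Rates up to 1280 g/ha.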

Veronica persica (VERPE) [2] = assay: A. Herbicidal pre-emergence efficacy, VERPE; settings: for Pre-emergence efficacy against VERPE: dosage 80 g/ha
How it was run: as §1

Setaria viridis (SETVI) = assay: C. Herbicidal pre-emergence efficacy, SETVI; settings: scored after about 3 weeks
How it was run: (§2)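 Pre-emergence test: formulated compounds sprayed as aqueous suspension or emulsion with 0.5% additive at 600 l/ha onto soil covering sown seeds, at rates corresponding to 320 g/ha or less. After about 3 weeks in greenhouse, efficacy scored visually as percent versus untreated controls (100% = plants dead).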

Viola tricolor (VIOTR) = assay: C. Herbicidal pre-emergence efficacy, VIOTR
How it was run: as §2

Poa annua (POAAN) = assay: A. Herbicidal pre-emergence efficacy, POAAN
How it was run: as §1

Veronica persica (VERPE) [3] = assay: C. Herbicidal pre-emergence efficacy, VERPE; settings: scored after about 3 weeks
How it was run: as §2

[4] = test system: Abutilon theophrasti (ABUTH); assay: C. Herbicidal pre-emergence efficacy, ABUTH; settings: scored after about 3 weeks
How it was run: as §2

| Compound | Post-emergence efficacy against VERPE (Veronica persica (VERPE) [1]; 1280 g/ha) [%] | Pre-emergence efficacy against STEME (Stellaria media (STEME); dosage 80 g/ha) [%] | Pre-emergence efficacy against STEME (Stellaria media (STEME); dosage 320 g/ha) [%] | Pre-emergence efficacy against STEME (Stellaria media (STEME); dosage 1280 g/ha) [%] | Pre-emergence efficacy against VERPE in % (Veronica persica (VERPE) [2]; 320 g/ha) [%] | Pre-emergence efficacy against VERPE in % (Veronica persica (VERPE) [2]; 1280 g/ha) [%] | Pre-emergence efficacy against VERPE (Veronica persica (VERPE) [2]) [%] | Pre-emergence efficacy against SETVI (Setaria viridis (SETVI); 80 g/ha) [%] | Pre-emergence efficacy against SETVI (Setaria viridis (SETVI); 320 g/ha) [%] | Pre-emergence efficacy against VIOTR in % (Viola tricolor (VIOTR); application rate 80 g/ha) [%] | Pre-emergence efficacy against VIOTR in % (Viola tricolor (VIOTR); application rate 320 g/ha) [%] | Pre-emergence efficacy against POAAN (Poa annua (POAAN); dosage 80 g/ha) [%] | Pre-emergence efficacy against POAAN (Poa annua (POAAN); dosage 320 g/ha) [%] | Pre-emergence efficacy against POAAN (Poa annua (POAAN); dosage 1280 g/ha) [%] | Pre-emergence efficacy against VERPE (Veronica persica (VERPE) [3]; 80 g/ha) [%] | Pre-emergence efficacy against VERPE (Veronica persica (VERPE) [3]; 320 g/ha) [%] | Pre-emergence efficacy against ABUTH ([4]; 80 g/ha) [%] | Pre-emergence efficacy against ABUTH ([4]; 320 g/ha) [%] | Post-emergence efficacy against VERPE (Veronica persica (VERPE) [1]; 80 g/ha) [%] | Post-emergence efficacy against VERPE (Veronica persica (VERPE) [1]; 320 g/ha) [%] |
| --- | --- | --- | --- | --- | --- | --- | --- | --- | --- | --- | --- | --- | --- | --- | --- | --- | --- | --- | --- | --- |
| O=S(=O)(CCC(F)(F)F)Oc1ccccc1Oc1ncc(Cl)cn1 [Example I-8] | 90 | 100 | 100 | 100 | 100 | 100 | 100 | 100 | 100 | 90 | 90 | 90 | 100 | 100 | 100 | 100 | 100 | 100 |  |  |
| O=S(=O)(CCCCl)Oc1c(F)cccc1Oc1ncc(Cl)cn1 [Example I-14] | 100 | 100 | 100 | 100 | 100 | 100 | 100 | 100 | 100 | 100 | 100 | 100 | 100 | 100 | 100 | 100 | 90 | 100 | 100 | 100 |
| O=S(=O)(CCCCCl)Oc1ccccc1Oc1ncc(Cl)cn1 [Example I-15] | 100 | 100 | 100 | 100 | 90 | 90 |  | 80 | 100 | 100 | 100 | 100 | 100 | 100 |  | 80 |  | 100 | 100 | 100 |
| O=S(=O)(CC1CC1)Oc1ccccc1Oc1ncc(Cl)cn1 [Example I-23] | 100 | 100 | 100 | 100 | 100 | 100 | 90 | 100 | 100 | 100 | 100 | 90 | 90 | 90 | 100 | 100 | 100 | 100 | 90 | 100 |
| CC(C)CCS(=O)(=O)Oc1ccccc1Oc1ncc(Cl)cn1 [Example I-25] | 100 |  | 90 | 100 |  | 90 |  | 80 | 100 | 90 | 100 |  | 100 | 100 | 80 | 100 |  | 100 | 100 | 100 |

Source: patent publication US20240174618A1, “SUBSTITUTED (2-HETEROARYLOXYPHENYL)SULFONATES, SALTS THEREOF AND THEIR USE AS HERBICIDAL AGENTS” (Bayer Aktiengesellschaft, priority 2021, published 2024)
